Laboratory results as given in patent US7091354B2, “Processes for the preparation of peripheral opioid antagonist compounds and intermediates thereto” (Adolor Corporation, priority 2002, dated 2006).

SMILES | melting point [°C]
C=C(C(=O)OC)[C@@H](O)c1ccccc1 (single isomer, unassigned) | 48
C=C(C(=O)OC)C(O)c1ccccc1 (single isomer, unassigned) | 51
